# pIC50: −log10 of the molar value. Where a SMILES comes first, the peptide text is derived from it. [ ]: non-standard residue; d: D form. Nle = CCCC[C@H](N)C(=O)O
# How the values were obtained:
# GRP receptor [1] = target: T1, GRP receptor (Mus musculus, UniProt P21729); assay: ^125I-GRP ligand binding assay, detergent solubilized Swiss 3T3 fibroblast membranes; conditions: for Solubilized Membranes Counts/minute Bound Measured as % of Total Added: 10 µM nucleotide added to control containing MgCl2, 0.075% CHAPS, 0.015% CHS, control 28
# T1 construct: endogenous in cells; host or cells: mouse Swiss 3T3 fibroblasts (membranes; intact or solubilized with CHAPS/CHS)
# Experimental: Swiss 3T3 fibroblast membranes, prepared in Example 1, were suspended at 15 mg protein/ml in 50 mM HEPES, pH 7.5, 1.0 mM EGTA, 100 mM NaCl, 0.25 M sucrose, 50 µg/ml leupeptin, 5 µg/ml pepstatin, 10 µg/ml aprotinin, 30 µg/ml bacitracin, and 0.5 mM phenylmethylsulfonyl fluoride. A mixture of 3-[(3cholamidopropyl) dimethylammonio]-1- propane sulfonate (CHAPS) and cholesteryl hemisuccinate (CHS) in a ratio of 10:1 was added slowly to yield a final concentration of 0.75% CHAPS. The extract was incubated at 21°C for 30 minutes, cooled to 4°C and the insoluble material was removed by centrifugation at 100,000 x gravity for 60 minutes.
# For assays of detergent solubilized membrane extracts, the final CHAPS detergent concentration was adjusted to between 0.050% and 0.20%. The concentration of CHS was maintained at 1/5 to 1/10 the concentration of CHAPS. Samples were also prepared omitting the BSA. After incubation at 15°C for 30 minutes, samples were cooled to 0°C. Bound ligand (^125I-GRP:GRP receptor complex) was recovered by rapid filtration through polyethyleneimine treated Whatman GF/B filters, followed by four washes with 4 mls of ice cold Tris buffer (50 mM Tris/Cl, pH 7.5). The filters were counted in an Isodata 500 gamma counter.
# Scatchard analysis of ^125I-GRP binding to intact and solubilized Swiss 3T3 membranes was done. One particular experiment is discussed below, where the binding parameters of the solubilized and the membrane bound form of the receptor are determined under similar conditions.
# GRP receptor [2] = target: T1, GRP receptor; assay: ^125I-GRP ligand binding assay, intact Swiss 3T3 fibroblast membranes; conditions: 5 µM nucleotide added to control containing MgCl2; control 28.9
# Experimental: For assays of detergent solubilized membrane extracts, the final CHAPS detergent concentration was adjusted to between 0.050% and 0.20%. The concentration of CHS was maintained at 1/5 to 1/10 the concentration of CHAPS. Samples were also prepared omitting the BSA. After incubation at 15°C for 30 minutes, samples were cooled to 0°C. […] The filters were counted in an Isodata 500 gamma counter.
# One particular experiment is discussed below, where the binding parameters of the solubilized and the membrane bound form of the receptor are determined under similar conditions.
# T1 sequence (P21729 whole entry): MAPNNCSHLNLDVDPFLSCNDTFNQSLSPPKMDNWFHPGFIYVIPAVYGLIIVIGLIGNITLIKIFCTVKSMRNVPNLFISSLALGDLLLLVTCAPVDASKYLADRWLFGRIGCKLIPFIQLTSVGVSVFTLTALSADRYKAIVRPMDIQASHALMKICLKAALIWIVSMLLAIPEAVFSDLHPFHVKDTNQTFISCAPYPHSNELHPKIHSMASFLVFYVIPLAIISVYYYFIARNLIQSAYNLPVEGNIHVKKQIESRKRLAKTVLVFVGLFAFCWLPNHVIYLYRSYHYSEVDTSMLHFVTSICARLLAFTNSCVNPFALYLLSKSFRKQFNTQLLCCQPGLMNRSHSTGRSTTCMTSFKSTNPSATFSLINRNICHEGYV
Compound,Solubilized Membranes Counts/minute Bound Measured as % of Total Added (GRP receptor [1]) [%],pIC50 (GRP receptor [1]; unlabeled competitor peptide),"time at which binding to the soluble receptor leveled off (GRP receptor [1]; 15°C, remained constant for up to 2 hours) [min]",Intact Membranes Counts/minute Bound Measured as % of Total Added (GRP receptor [2]) [%]
3-(125Iodotyrosyl15) gastrin releasing peptide [^125I-GRP],–,–,≤ 20,–
Nc1ncnc2c1ncn2[C@@H]1O[C@H](COP(=O)(O)OP(=O)(O)NP(=O)(O)O)[C@@H](O)[C@H]1O [AMPPNP],27.8,–,–,33.4
Nc1ncnc2c1ncn2[C@@H]1O[C@H](COP(=O)(O)OP(=O)(O)OP(=O)(O)O)[C@@H](O)[C@H]1O [ATP],–,–,–,29.7
"CCCC[C@H](NC(=O)[C@H](CC(C)C)NC(=O)[C@H](Cc1c[nH]cn1)NC(=O)CNC(=O)[C@@H](NC(=O)[C@H](C)NC(=O)[C@H](Cc1c[nH]c2ccccc12)NC(=O)[C@H](Cc1c[nH]cn1)NC(=O)[C@H](CC(N)=O)NC(=O)CNC(=O)[C@H](CCCNC(=N)N)NC(=O)[C@@H]1CCCN1C(=O)[C@H](Cc1ccc(O)cc1)NC(=O)[C@H](CCCC)NC(=O)[C@@H](N)CCCCN)C(C)C)C(N)=O [[Nle^14,27]GRP13-27] (H-K[Nle]YPRGNHWAVGHL[Nle]-NH2)",–,9.52,–,–

# Continued, in another order:
Solubilized Membranes Counts/minute Bound Measured as % of Total Added (GRP receptor [1]) [%],pIC50 (GRP receptor [1]; unlabeled competitor peptide),Compound,"time at which binding to the soluble receptor leveled off (GRP receptor [1]; 15°C, remained constant for up to 2 hours) [min]",Intact Membranes Counts/minute Bound Measured as % of Total Added (GRP receptor [2]) [%]
26.5,–,Nc1nc2c(ncn2[C@@H]2O[C@H](COP(=O)(O)OP(=O)(O)NP(=O)(O)O)[C@@H](O)[C@H]2O)c(=O)[nH]1 [GMPPNP],–,10.5
27.5,–,Nc1nc2c(ncn2[C@@H]2O[C@H](COP(=O)(O)OP(=O)(O)OP(=O)(O)O)[C@@H](O)[C@H]2O)c(=O)[nH]1 [GTP],–,10.7
